# Measured values taken from patent publication US20050282818A1, “Ubiquitin ligase inhibitors” (Rigel Pharmaceuticals, Inc., priority 2004, published 2005).
# Where two headings read alike, the source gives them in different places.
# What was measured:
# H1299 cells = test: Cell proliferation PAD assay, H1299; format: cell-based; settings: Homo sapiens, 48 hours
# Outline: (§1)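 Proliferation was scored by DAPI imaging of fixed cells, counting live, apoptotic and dead cells, after 48 h compound exposure at 37 °C, 5% CO2. Compound, dosed in duplicate 24 h post-plating (2,000 cells/well), came from 6.3-fold dilutions of a 10 mM stock diluted 500-fold.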
# TRAF6/Uev1A/Ubc13 = molecular target: T1, TRAF6/Uev1A/Ubc13 (Homo sapiens, UniProt Q9Y4K3); test: TRAF6/Uev1A/Ubc13 plate-based ubiquitin ligase assay; format: biochemical
# T1 sequence (Q9Y4K3 1-522): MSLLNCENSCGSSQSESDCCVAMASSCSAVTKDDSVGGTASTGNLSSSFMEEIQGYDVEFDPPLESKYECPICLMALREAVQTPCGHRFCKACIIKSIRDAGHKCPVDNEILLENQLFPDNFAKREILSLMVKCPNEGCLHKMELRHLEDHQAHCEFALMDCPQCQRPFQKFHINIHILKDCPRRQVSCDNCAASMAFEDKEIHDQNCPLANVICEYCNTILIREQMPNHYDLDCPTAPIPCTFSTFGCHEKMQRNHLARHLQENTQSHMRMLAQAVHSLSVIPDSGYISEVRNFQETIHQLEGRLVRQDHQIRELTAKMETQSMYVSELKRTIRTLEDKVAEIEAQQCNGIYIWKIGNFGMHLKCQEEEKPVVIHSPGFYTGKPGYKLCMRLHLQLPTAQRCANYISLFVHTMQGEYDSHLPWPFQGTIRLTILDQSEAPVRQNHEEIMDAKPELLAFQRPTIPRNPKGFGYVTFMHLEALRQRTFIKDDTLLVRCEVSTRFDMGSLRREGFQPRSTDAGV
# Outline: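 Ligase activity was read as luminescence from anti-Flag/HRP detection of Flag-ubiquitin bound to casein-blocked Ni-plates alongside His-ubiquitin after a 1 h room-temperature reaction. Buffer: 62.5 mM Tris pH 7.5, 6.25 mM MgCl2, 1.0 mM DTT, 2 μM ATP; E1, Uev1a/Ubc13 and TRAF6 added last to start. IC50s derived across compound concentrations.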
# A549 cells = test: Cell proliferation PAD assay, A549; format: cell-based; settings: Homo sapiens, 48 hours
# Outline: as §1
# [1] = NCI-H1299, 3pt, read-out: H1299 3pt
# [2] = NCI-H1299, 6pt, read-out: H1299 6pt
SMILES,IC50 (H1299 cells; [1]) [µM],IC50 (H1299 cells; [2]) [µM],IC50 (TRAF6/Uev1A/Ubc13) [µM],"IC50 (A549 cells; 3pt, read-out: A549 3pt) [µM]","IC50 (A549 cells; 6pt, read-out: A549 6pt) [µM]"
"N#Cc1ccc(N2CCN(S(=O)(=O)c3c(Cl)ccc4nonc34)CC2)nc1 [compound 209, 6-{4-[(5-chloro-2,1,3-benzoxadiazol-4-yl)sulfonyl]piperazin-1-yl}nicotinonitrile]",1 to 20,< 1,1 to 20,1 to 20,< 1
"CC(=O)N1CCN(S(=O)(=O)c2c(Sc3cccc4cccnc34)ccc3nonc23)CC1 [compound 214, 8-({4-[(4-acetylpiperazin-1-yl)sulfonyl]-2,1,3-benzoxadiazol-5-yl}thio)quinoline]",1 to 20,–,1 to 20,1 to 20,–
"O=S(=O)(Nc1ccc2cn[nH]c2c1)c1ccc(Cl)c2nonc12 [compound 220, 7-chloro-N-1 H-indazol-6-yl-2,1,3-benzoxadiazole-4-sulfonamide]",1 to 20,1 to 20,≥ 20,1 to 20,1 to 20
"O=S(=O)(c1ccc(Sc2ccc(O)cc2)c2nonc12)N1CCC(Oc2ncccn2)CC1 [compound 226, 4-[(7-{[4-(pyrimidin-2-yloxy)piperidin-1-yl]sulfonyl}-2,1,3-benzaxadiazol-4-yl)thio]phenol]",–,1 to 20,1 to 20,–,1 to 20
"CC1(C)CCN(S(=O)(=O)c2c(Cl)ccc3nonc23)CC1 [compound 245, 5-chloro-4-[(4,4-dimethylpiperidin-1-yl)sulfonyl]-2,1,3-benzoxadiazole]",–,< 1,1 to 20,–,≥ 20
"O=S(=O)(Nc1ccc(F)c(F)c1)c1ccc(Cl)c2nonc12 [compound 262, 7-chloro-N-(3,4-difluorophenyl)-2,1,3-benzoxadiazole-4-sulfonamide]",1 to 20,–,≥ 20,1 to 20,–
"O=S(=O)(Nc1cccc(F)c1)c1ccc(Cl)c2nonc12 [compound 263, 7-chloro-N-(3-fluorophenyl)-2,1,3-benzoxadiazole-4-sulfonamide]",1 to 20,–,≥ 20,1 to 20,–
"Cc1cc(C)cc(-c2cccc3nonc23)c1 [compound 285, 4-(3,5-Dimethylphenyl)-2,1,3-benzoxadiazole]",≥ 20,–,≥ 20,≥ 20,≥ 20
"Cc1cc(C)cc(-c2ccc([N+](=O)[O-])c3nonc23)c1 [compound 286, 4-(3,5-Dimethylphenyl)-7-nitro-2,1,3-benzoxadiazole]",1 to 20,< 1,≥ 20,1 to 20,≥ 20
"O=[N+]([O-])c1ccc(-c2cccc(C(F)(F)F)c2)c2nonc12 [compound 309, 4-Nitro-7-[3-(trifluoromethyl)phenyl]-2,1,3-benzoxadiazole]",–,1 to 20,1 to 20,–,1 to 20
"Cc1cccc(-c2ccc([N+](=O)[O-])c3nonc23)c1 [compound 310, 4-(3-Methylphenyl)-7-nitro-2,1,3-benzoxadiazole]",–,< 1,≥ 20,–,< 1
"CC(C)(C)c1ccc(-c2ccc([N+](=O)[O-])c3nonc23)cc1 [compound 313, 4-(4-Tert-butylphenyl)-7-nitro-2,1,3-benzoxadiazole]",–,< 1,1 to 20,–,< 1
"COc1cccc(-c2ccc([N+](=O)[O-])c3nonc23)c1F [compound 314, 4-(2-Fluoro-3-methoxyphenyl)-7-nitro-2,1,3-benzoxadiazole]",–,1 to 20,1 to 20,–,1 to 20
"O=S(=O)(Nc1ccc2cn[nH]c2c1)c1c(O)ccc2nonc12 [compound 339, 5-hydroxy-N-(1H-indazol-6-yl)2,1,3-benzoxadiazole-4-sulfonamide]",–,≥ 20,≥ 20,–,≥ 20
"O=S(=O)(c1c(N2CCC(Oc3ccccc3C(F)(F)F)CC2)ccc2nonc12)N1CCC(Oc2ccccc2C(F)(F)F)CC1 [compound 340, 5-[4-(2-{trifluoromethyl}phenoxy)piperidin-1-yl]-4-{[4-(2-{trifluoromethyl}phenoxy)piperidin-1-yl]sulfonyl}-2,1,3-benzoxadiazole]",–,1 to 20,≥ 20,–,1 to 20
"COc1cc(NS(=O)(=O)c2ccc(Cl)c3nonc23)c(OC)cc1Cl [compound 341, 7-chloro-N-(4-chloro-2,5-dimethoxyphenyl)-2,1,3-benzoxadiazole-4-sulfonamide]",–,1 to 20,≥ 20,–,1 to 20
"COc1cc(Nc2ccc(S(=O)(=O)Nc3cc(OC)c(Cl)cc3OC)c3nonc23)c(OC)cc1Cl [compound 342, N-(4-chloro-2,5-dimethoxyphenyl)-7-([4-chloro-2,5-dimethoxyphenyl]amino)-2,1,3-benzoxadiazole-4-sulfonamide]",–,< 1,1 to 20,–,1 to 20
"COc1cc(NS(=O)(=O)c2c(Cl)ccc3nonc23)c(OC)cc1Cl [compound 343, 5-chloro-N-(4-chloro-2,5-dimethoxyphenyl)-2,1,3-benzoxadiazole-4-sulfonamide]",–,1 to 20,≥ 20,–,1 to 20
"COc1cc(Nc2ccc3nonc3c2S(=O)(=O)Nc2cc(OC)c(Cl)cc2OC)c(OC)cc1Cl [compound 344, N-(4-chloro-2,5-dimethoxyphenyl)-5-([4-chloro-2,5-dimethoxyphenyl]amino)-2,1,3-benzoxadiazole-4-sulfonamide]",–,≥ 20,≥ 20,–,≥ 20
